Reference: patent publication EP1479385B1, “Use of cyclooxygenase-2 inhibitors in the treatment and prevention of neoplasia” (G.D. Searle LLC, priority 1996, dated 1998)

Tests used:
PC-3 cells = experiment: Human prostate cancer PC-3 tumors in nude mice; format: in vivo; settings: 20 mg/kg/day in water
Description: (§1) Two human prostate cancer cell lines (PC-3 and LNCaP) were obtained (ATCC) to determine the efficacy of cyclooxygenase-2 inhibitors to inhibit tumor growth in a therapeutic model. In addition, the LNCaP cell line secretes prostate serum antigen (PSA) when grown in nude mice.
PC-3 cells (10^6 cells/0.2 ml of 30% matrigel) in RPMI 1640 medium was injected on the back of nude mice. […] After 45 days, PGE2 and TXB2 were measured.

LNCaP = experiment: Human prostate cancer LNCaP tumors in nude mice; format: in vivo; settings: dose equivalent to 6 mg/kg/day in the drinking water
From the text: as §1
PSA level was reduced to approximately 50% as judged by western blotting.

Lewis lung carcinomas = experiment: Murine Lewis lung carcinoma model (tumor volume); format: in vivo, C57BL/6 mice; settings: day 32 after cancer cell injection, vs control group
Description: Lewis lung carcinomas were implanted sub-cutaneously into the foot pad of male C57BL/6 mice. The mice were subsequently treated with 4-[5-(4-chlorophenyl)-3-(difluoromethyl)-1H-pyrazol-1-yl)benzenesulfonamide. The drug was supplied in the drinking water at 6 mg/kg/day. […] The drug was supplied in the drinking water at the maximum tolerated dose of […]. A total of 10 mice/compound were tested. Tumor volume was determined twice a week using a plethysmometer. The % inhibition value is calculated by calculating the difference in tumor size compared with the control group.

[1] = test system: Lewis Lung carcinoma cells; experiment: Combination therapy in Lewis Lung carcinoma model (tumor volume); format: in vivo, C57BL/6 mice; settings: CTX 50 mg/kg injected on days 5, 7 and 9 after implantation
Description: Lewis Lung carcinoma cells (2.5 x 10^6 cells) prepared from a brei carried in C57BL/6 mice were injected sub-cutaneously into the hind legs of mice.

## NS(=O)(=O)c1ccc(-n2nc(C(F)F)cc2-c2ccc(Cl)cc2)cc1 [COX-2 inhibitor, 4-[5-(4-chlorophenyl)-3-(difluoromethyl)-1H-pyrazol-1-yl]benzenesulfonamide]
PC-3 cells; administered from day 28, after 45 days
  inhibited tumor growth: 55%
PC-3 cells; measured after 45 days
  PGE2 levels reduced: 80-90%
  TXB2 levels reduced: 80-90%
LNCaP; day 58
  inhibited the growth of the tumor: 55%
LNCaP; judged by western blotting
  PSA level was reduced to: approximately 50%
Lewis lung carcinomas; 6 mg/kg/day in the drinking water
  Tumor Volume (Day 32) % Inhibition: 70.86%

## O=P1(N(CCCl)CCCl)NCCCO1 (centres unmarked) [CTX, Cyclophosphamide]
[1]
  Tumor Volume (Day 22) % Inhibition: 57%

## COc1ccc2c(c1)c(CC(=O)O)c(C)n2C(=O)c1ccc(Cl)cc1 [Indomethacin, indomethacin, reference compound]
Lewis lung carcinomas; 2 mg/kg/day (maximum tolerated dose) in the drinking water
  Tumor Volume (Day 32) % Inhibition: 62.90%
